Assay results reported in patent US11708348B2, “Protease inhibitors for treatment of coronavirus infections” (The Scripps Research Institute, priority 2021, dated 2023).

System: SARS-CoV-2 strain USA-WA1/2020
Experiment: microbe, parasite or virus in culture
Format: cell-based
Conditions: Severe acute respiratory syndrome coronavirus 2, HeLa-ACE2, 24 h, HeLa-ACE2 cells, SARS-CoV-2 infection, 24 h; class symbols; read-out: EC50, uM (Hela)

Compound | EC50 [µM]
O=C(Nc1ccccc1F)C(=O)N[C@@H](CC1CCNC1=O)C(=O)N[C@@H](C[C@@H]1CCNC1=O)C(=O)COC(F)(F)F (stereo partly drawn) [Compound 218, N1-(2-fluorophenyl)-N2-((2S)-1-oxo-1-(((S)-3-oxo-1-((S)-2-oxopyrrolidin-3-yl)-4-(trifluoromethoxy)butan-2-yl)amino)-3-(2-oxopyrrolidin-3-yl)propan-2-yl)oxalamide] | 0.5 to 1
O=C(N[C@@H](C[C@@H]1CCNC1=O)C(=O)COC(F)(F)F)C(CC1CCOCC1)NC(=O)[C@H]1CCCO1 (stereo partly drawn) [Compound 298, (2R)-N-(1-oxo-1-(((S)-3-oxo-1-((S)-2-oxopyrrolidin-3-yl)-4-(trifluoromethoxy)butan-2-yl)amino)-3-(tetrahydro-2H-pyran-4-yl)propan-2-yl)tetrahydrofuran-2-carboxamide] | 0.5 to 1
C[C@@](O)(C(=O)N1CC2(CC2)C[C@H]1C(=O)N[C@@H](C[C@@H]1CCNC1=O)C(=O)COC(F)(F)F)c1ccccc1 [Compound 364, (S)-5-((S)-2-hydroxy-2-phenylpropanoyl)-N-((S)-3-oxo-1-((S)-2-oxopyrrolidin-3-yl)-4-(trifluoromethoxy)butan-2-yl)-5-azaspiro[2.4]-heptane-6-carboxamide] | < 0.05
O=C(N[C@@H](CC1CC1)C(=O)N[C@@H](C[C@@H]1CCNC1=O)C(=O)COC(F)(F)F)c1cc2cc(F)ccc2[nH]1 [Compound 161, N-((S)-3-cyclopropyl-1-oxo-1-(((S)-3-oxo-1-((S)-2-oxopyrrolidin-3-yl)-4-(trifluoromethoxy)butan-2-yl)amino)propan-2-yl)-5-fluoro-1H-indole-2-carboxamide] | < 0.05
CC(C)C[C@H](NC(=O)C(C)(C)O)C(=O)N[C@@H](C[C@@H]1CCNC1=O)C(=O)COC(F)(F)F [Compound 353, (S)-2-(2-hydroxy-2-methylpropanamido)-4-methyl-N-((S)-3-oxo-1-((S)-2-oxopyrrolidin-3-yl)-4-(trifluoromethoxy)butan-2-yl)pentanamide] | 0.05 to 0.2
O=C1NCC[C@H]1C[C@H](NC(=O)[C@@H]1CC2(CC2)CN1C(=O)[C@H](O)Cc1ccccc1)C(=O)COC(F)(F)F [Compound 398, (S)-5-((R)-2-hydroxy-3-phenylpropanoyl)-N-((S)-3-oxo-1-((S)-2-oxopyrrolidin-3-yl)-4-(trifluoromethoxy)butan-2-yl)-5-azaspiro[2.4]heptane-6-carboxamide] | 0.05 to 0.2

Same assay, conditions: Severe acute respiratory syndrome coronavirus 2, HeLa-ACE2, 24 h, HeLa-ACE2 cells, SARS-CoV-2 infection, 24 h; read-out: EC50, uM (Hela)

Compound | EC50 [µM]
CC1(C[C@H](NC(=O)C(=O)NC23CC(F)(C2)C3)C(=O)N[C@@H](C[C@@H]2CCNC2=O)C(=O)COC(F)(F)F)CC1 [Compound 582, N1-(3-fluorobicyclo-[1.1.1]pentan-1-yl)-N2-((S)-3-(l-methyl-cyclopropyl)-1-oxo-1-(((S)-3-oxo-1-((S)-2-oxopyrrolidin-3-yl)-4-(trifluoromethoxy)butan-2-yl)amino)propan-2-yl)oxalamide] | < 0.05
CC(C)(C)CCC(=O)N1CC2(CC2)C[C@H]1C(=O)N[C@@H](C[C@@H]1CCNC1=O)C(=O)COC(F)(F)F [Compound 459, (S)-5-(4,4-dimethylpentanoyl)-N-((S)-3-oxo-1-((S)-2-oxopyrrolidin-3-yl)-4-(trifluoromethoxy)butan-2-yl)-5-azaspiro[2.4]heptane-6-carboxamide] | < 0.05
CC(C)C[C@@H](O)C(=O)N1CCC(C)(C)C[C@H]1C(=O)N[C@@H](C[C@@H]1CCNC1=O)C(=O)COC(F)(F)F [Compound 641, (S)-1-((R)-2-hydroxy-4-methylpentanoyl)-4,4-dimethyl-N-((S)-3-oxo-1-((S)-2-oxopyrrolidin-3-yl)-4-(trifluoromethoxy)butan-2-yl)piperidine-2-carboxamide] | < 0.05
CC(C)(C)NC(=O)C(=O)N1[C@H](C(=O)N[C@@H](C[C@@H]2CCNC2=O)C(=O)COC(F)(F)F)C[C@@H]2CCCC[C@@H]21 [Compound 498, (2S,3aS,7aS)-1-(2-(tert-butylamino)-2-oxoacetyl)-N-((S)-3-oxo-1-((S)-2-oxopyrrolidin-3-yl)-4-(trifluoromethoxy)butan-2-yl)octahydro-1H-indole-2-carboxamide] | 0.05 to 0.2
